Experiments:
Estrogen receptor [1] = biological target: T1, Estrogen receptor (Homo sapiens, UniProt Q92731+P03372); assay: In vitro antagonistic activity against human estrogen receptor (hER); not active; format: functional
Estrogen receptor [2] = biological target: T1, Estrogen receptor; assay: (§1) In vitro antagonistic activity against human estrogen receptor (hER); format: functional
Glucocorticoid receptor [3] = biological target: T2, Glucocorticoid receptor (Homo sapiens, UniProt P04150); assay: In vitro antagonistic activity against human glucocorticoid receptor (hGR); format: functional
T2 sequence (P04150 whole entry): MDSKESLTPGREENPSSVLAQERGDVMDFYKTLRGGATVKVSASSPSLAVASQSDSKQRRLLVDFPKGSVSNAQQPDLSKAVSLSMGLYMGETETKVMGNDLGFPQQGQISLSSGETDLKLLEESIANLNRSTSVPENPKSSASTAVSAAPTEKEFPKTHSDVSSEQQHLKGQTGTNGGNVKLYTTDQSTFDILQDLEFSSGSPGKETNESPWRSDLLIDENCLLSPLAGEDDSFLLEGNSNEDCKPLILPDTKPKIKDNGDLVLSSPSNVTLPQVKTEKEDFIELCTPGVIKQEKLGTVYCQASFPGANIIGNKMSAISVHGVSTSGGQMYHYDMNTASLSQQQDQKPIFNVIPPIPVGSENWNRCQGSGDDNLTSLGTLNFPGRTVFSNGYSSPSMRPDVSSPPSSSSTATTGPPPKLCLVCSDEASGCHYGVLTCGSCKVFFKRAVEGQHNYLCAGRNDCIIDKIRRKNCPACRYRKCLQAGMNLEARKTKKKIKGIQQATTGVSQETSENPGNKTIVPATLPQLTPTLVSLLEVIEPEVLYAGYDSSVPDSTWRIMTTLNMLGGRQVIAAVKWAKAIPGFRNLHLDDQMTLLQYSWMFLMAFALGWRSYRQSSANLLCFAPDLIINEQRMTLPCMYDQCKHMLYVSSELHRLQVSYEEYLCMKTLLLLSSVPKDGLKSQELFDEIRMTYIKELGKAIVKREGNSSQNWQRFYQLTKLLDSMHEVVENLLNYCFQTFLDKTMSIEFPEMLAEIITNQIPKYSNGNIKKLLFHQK

[4] = biological target: T3, Mineralocorticoid receptor (Homo sapiens, UniProt P08235); assay: (§2) In vitro antagonistic activity against human mineralocorticoid receptor (hMR); format: functional
T3 sequence (P08235 whole entry): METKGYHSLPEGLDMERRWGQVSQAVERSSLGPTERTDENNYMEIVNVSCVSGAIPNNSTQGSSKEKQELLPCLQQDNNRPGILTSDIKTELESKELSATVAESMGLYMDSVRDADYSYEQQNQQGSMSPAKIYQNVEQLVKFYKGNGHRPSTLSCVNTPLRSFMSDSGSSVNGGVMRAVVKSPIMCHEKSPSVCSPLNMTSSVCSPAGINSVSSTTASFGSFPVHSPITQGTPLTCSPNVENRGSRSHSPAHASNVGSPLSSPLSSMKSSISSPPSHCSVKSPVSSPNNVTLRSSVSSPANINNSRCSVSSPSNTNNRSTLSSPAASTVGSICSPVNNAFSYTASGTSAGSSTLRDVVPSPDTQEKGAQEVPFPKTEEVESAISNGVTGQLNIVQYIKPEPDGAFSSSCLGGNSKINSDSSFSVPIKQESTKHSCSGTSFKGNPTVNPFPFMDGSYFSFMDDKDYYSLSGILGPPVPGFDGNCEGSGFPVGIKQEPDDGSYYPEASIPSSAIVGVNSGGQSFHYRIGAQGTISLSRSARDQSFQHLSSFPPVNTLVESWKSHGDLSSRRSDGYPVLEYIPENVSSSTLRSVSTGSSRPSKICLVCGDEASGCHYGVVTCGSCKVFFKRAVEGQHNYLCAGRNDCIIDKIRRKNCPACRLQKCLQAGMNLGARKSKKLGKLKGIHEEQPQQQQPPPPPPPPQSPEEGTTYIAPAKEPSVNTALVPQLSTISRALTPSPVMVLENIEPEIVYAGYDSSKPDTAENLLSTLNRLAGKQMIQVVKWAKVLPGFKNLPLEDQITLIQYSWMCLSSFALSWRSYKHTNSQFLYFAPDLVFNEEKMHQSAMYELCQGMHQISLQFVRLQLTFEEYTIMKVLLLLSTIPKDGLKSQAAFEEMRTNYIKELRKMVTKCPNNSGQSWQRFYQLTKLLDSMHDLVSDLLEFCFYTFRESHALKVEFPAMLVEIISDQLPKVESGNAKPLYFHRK

[5] = biological target: T4, Mineralocorticoid receptor (Homo sapiens) (UniProt P08235); assay: as §2; format: functional
T4 sequence (whole entry): T3 sequence (P08235 whole entry)

[6] = biological target: T5, Progesterone receptor (Homo sapiens) (UniProt P06401); assay: (§3) In vitro antagonistic activity against human progesterone receptor (hPR); format: functional
T5 sequence (whole entry): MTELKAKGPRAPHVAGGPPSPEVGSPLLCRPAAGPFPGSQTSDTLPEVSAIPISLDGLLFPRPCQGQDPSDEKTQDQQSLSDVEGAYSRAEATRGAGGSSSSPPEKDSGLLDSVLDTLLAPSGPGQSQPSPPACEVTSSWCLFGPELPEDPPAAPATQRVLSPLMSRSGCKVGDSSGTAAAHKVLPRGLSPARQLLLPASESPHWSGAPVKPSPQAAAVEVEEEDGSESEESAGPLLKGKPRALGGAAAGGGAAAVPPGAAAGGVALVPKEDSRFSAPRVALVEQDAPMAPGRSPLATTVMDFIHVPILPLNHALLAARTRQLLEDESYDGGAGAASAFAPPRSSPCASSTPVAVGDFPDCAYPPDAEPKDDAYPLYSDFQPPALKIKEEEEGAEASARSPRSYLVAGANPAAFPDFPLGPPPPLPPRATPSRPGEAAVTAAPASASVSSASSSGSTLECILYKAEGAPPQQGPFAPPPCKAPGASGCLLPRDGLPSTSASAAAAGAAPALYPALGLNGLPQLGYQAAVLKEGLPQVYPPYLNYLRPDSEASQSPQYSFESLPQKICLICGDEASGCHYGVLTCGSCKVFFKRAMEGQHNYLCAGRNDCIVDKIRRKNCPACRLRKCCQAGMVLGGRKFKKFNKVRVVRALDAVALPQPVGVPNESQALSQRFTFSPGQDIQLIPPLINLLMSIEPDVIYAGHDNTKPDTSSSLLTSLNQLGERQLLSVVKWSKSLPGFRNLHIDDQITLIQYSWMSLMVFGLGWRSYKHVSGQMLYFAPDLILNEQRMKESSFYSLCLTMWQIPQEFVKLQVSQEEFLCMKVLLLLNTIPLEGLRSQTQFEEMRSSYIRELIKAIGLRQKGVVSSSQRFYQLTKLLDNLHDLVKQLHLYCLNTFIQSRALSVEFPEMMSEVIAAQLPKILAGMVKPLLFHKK

Progesterone receptor = biological target: T6, Progesterone receptor (Homo sapiens, UniProt P06401); assay: as §3; format: functional
T6 sequence (P06401 whole entry): T5 sequence (whole entry)

Androgen receptor [7] = biological target: T7, Androgen receptor (Homo sapiens, UniProt P10275)
T7 sequence (P10275 whole entry): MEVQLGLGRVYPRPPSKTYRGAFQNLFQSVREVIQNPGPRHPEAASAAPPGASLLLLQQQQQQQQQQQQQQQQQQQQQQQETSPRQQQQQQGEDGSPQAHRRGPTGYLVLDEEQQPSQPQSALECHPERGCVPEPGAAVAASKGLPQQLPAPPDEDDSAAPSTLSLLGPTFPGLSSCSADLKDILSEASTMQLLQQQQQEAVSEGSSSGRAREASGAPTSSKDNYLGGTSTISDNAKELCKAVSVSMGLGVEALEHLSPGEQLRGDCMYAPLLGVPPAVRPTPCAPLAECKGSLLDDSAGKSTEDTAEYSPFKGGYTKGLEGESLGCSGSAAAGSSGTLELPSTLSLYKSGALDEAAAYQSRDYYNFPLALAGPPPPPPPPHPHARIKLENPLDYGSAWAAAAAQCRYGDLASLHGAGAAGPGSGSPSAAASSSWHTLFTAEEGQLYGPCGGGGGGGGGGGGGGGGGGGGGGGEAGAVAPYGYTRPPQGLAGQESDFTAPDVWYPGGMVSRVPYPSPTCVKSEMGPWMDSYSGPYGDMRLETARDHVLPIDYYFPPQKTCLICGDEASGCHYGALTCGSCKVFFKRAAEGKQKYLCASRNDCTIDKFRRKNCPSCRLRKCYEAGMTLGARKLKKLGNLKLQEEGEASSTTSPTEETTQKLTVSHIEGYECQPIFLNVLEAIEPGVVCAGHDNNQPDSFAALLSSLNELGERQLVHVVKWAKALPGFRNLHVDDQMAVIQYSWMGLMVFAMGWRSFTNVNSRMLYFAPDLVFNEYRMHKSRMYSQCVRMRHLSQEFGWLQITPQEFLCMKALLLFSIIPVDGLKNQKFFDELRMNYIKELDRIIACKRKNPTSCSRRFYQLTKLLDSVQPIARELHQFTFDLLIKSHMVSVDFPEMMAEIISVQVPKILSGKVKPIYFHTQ
Description: In vitro agonistic activity against human androgen receptor using cotransfection assay in CV-1 cells.

Androgen receptor [8] = biological target: T7, Androgen receptor; remark: listed apart in the source
Androgen receptor [9] = biological target: T7, Androgen receptor; assay: biochemical
Description: In vitro binding affinity at human androgen receptor transfected into COS cells.

Glucocorticoid receptor [10] = biological target: T2, Glucocorticoid receptor; assay: In vitro antagonistic activity against human glucocorticoid receptor (hGR); not active; format: functional
[11] = biological target: T3, Mineralocorticoid receptor; assay: In vitro antagonistic activity against human mineralocorticoid receptor (hMR); not active; format: functional
Androgen receptor [12] = biological target: T7, Androgen receptor; remark: listed apart in the source
Estrogen receptor [13] = biological target: T1, Estrogen receptor; assay: as §1; format: functional; remark: listed apart in the source
Estrogen receptor [14] = biological target: T1, Estrogen receptor; assay: In vitro antagonistic activity against human estrogen receptor (hER); Not active; format: functional

| Structure (SMILES) | IC50 (Estrogen receptor [1]) | Efficacy (Estrogen receptor [2]) | IC50 (Glucocorticoid receptor [3]) | IC50 [4] | Efficacy [5] | Efficacy [6] | IC50 (Progesterone receptor) | EC50 (Androgen receptor [7]) | IC50 (Androgen receptor [8]) | IC50 (Androgen receptor [9]) | IC50 (Glucocorticoid receptor [10]) | IC50 [11] | EC50 (Androgen receptor [12]) | IC50 (Estrogen receptor [13]) | IC50 (Estrogen receptor [14]) |
| --- | --- | --- | --- | --- | --- | --- | --- | --- | --- | --- | --- | --- | --- | --- | --- |
| CC[C@@H]1c2cc3c(C(F)(F)F)cc(=O)oc3cc2NC[C@H]1C (relative stereo) | > 10000 nM | < 20% | 2300 nM | 3000 nM | 60% | 98% | 130 nM | 1 nM | > 10 nM | 0.3 nM | – | – | – | – | – |
| CCC1CCc2cc3c(C(F)(F)F)cc(=O)oc3cc2N1 (centres undefined) | – | – | – | – | – | – | – | 7 nM | > 10 nM | 1 nM | – | – | – | – | – |
| O=c1cc(C(F)(F)F)c2cc3c(cc2o1)NCCC3C(F)(F)C(F)(F)F (centres undefined) | – | – | – | – | – | – | – | 13 nM | > 10 nM | 5 nM | – | – | – | – | – |
| CCC1CC(C)c2cc3c(C(F)(F)F)cc(=O)oc3cc2N1 (cis isomer) | – | – | – | – | – | – | – | 8 nM | > 10 nM | 11 nM | – | – | – | – | – |
| CC[C@H]1CNc2cc3oc(=O)cc(C(F)(F)F)c3cc2[C@@H]1CC (stereo in doubt) | – | – | – | – | – | – | – | 5 nM | > 10 nM | – | – | – | – | – | – |
| CC1=CC(C)(C)Nc2cc3oc(=O)cc(C(F)(F)F)c3cc21 | > 10000 nM | < 20% | – | – | < 20% | 79% | 100 nM | – | – | – | > 10000 nM | > 10000 nM | – | – | – |
| CCC1CCN(C)c2cc3oc(=O)cc(C(F)(F)F)c3cc21 (centres undefined) | – | – | – | – | – | – | – | 209 nM | > 10 nM | 276 nM | – | – | – | – | – |
| CC[C@H]1C[C@@H](C)Nc2cc3oc(=O)cc(C(F)(F)F)c3cc21 (relative stereo) | – | – | – | – | – | – | – | 27 nM | – | 12 nM | – | – | 16 nM | – | – |
| CC1(C)CCc2cc3c(C(F)(F)F)cc(=O)oc3cc2N1 | > 10000 nM | < 20% | – | 1500 nM | 50% | 84% | 570 nM | 9 nM | > 10 nM | 1 nM | > 10000 nM | – | – | – | – |
| O=c1cc(C(F)(F)F)c2cc3c(cc2o1)NCCC3 | – | – | – | – | – | – | – | 19 nM | > 10 nM | 1 nM | – | – | – | – | – |
| CC[C@H]1c2cc3c(C(F)(F)F)cc(=O)oc3cc2NC[C@H]1C (relative stereo) | – | 33% | 340 nM | 2800 nM | 39% | 87% | 130 nM | 7 nM | > 10 nM | 2 nM | – | – | – | 3100 nM | – |
| CCC1CC(CC)c2cc3c(C(F)(F)F)cc(=O)oc3cc2N1 (trans isomer) | – | – | – | – | – | – | – | 26 nM | > 10 nM | 7 nM | – | – | – | – | – |
| CC[C@@H]1CNc2cc3oc(=O)cc(C(F)(F)F)c3cc2[C@H]1CC (stereo in doubt) | – | < 20% | 2800 nM | 1900 nM | 50% | 98% | 65 nM | 5 nM | – | – | – | – | 1400 nM | – | > 10000 nM |
